From publication PMC4912453 (Nature chemical biology, 2016) come the findings set out here.

Structures are written as SMILES. Changes are numbered by the printed parent chain. Bounds are passed on as bounds.

What all share (assay type): binding
Test [1] deals with T1, DNA polymerase α catalytic subunit (POLA1) (Homo sapiens, UniProt P09884, L764S).
T1 sequence (P09884 335-1257 L764S): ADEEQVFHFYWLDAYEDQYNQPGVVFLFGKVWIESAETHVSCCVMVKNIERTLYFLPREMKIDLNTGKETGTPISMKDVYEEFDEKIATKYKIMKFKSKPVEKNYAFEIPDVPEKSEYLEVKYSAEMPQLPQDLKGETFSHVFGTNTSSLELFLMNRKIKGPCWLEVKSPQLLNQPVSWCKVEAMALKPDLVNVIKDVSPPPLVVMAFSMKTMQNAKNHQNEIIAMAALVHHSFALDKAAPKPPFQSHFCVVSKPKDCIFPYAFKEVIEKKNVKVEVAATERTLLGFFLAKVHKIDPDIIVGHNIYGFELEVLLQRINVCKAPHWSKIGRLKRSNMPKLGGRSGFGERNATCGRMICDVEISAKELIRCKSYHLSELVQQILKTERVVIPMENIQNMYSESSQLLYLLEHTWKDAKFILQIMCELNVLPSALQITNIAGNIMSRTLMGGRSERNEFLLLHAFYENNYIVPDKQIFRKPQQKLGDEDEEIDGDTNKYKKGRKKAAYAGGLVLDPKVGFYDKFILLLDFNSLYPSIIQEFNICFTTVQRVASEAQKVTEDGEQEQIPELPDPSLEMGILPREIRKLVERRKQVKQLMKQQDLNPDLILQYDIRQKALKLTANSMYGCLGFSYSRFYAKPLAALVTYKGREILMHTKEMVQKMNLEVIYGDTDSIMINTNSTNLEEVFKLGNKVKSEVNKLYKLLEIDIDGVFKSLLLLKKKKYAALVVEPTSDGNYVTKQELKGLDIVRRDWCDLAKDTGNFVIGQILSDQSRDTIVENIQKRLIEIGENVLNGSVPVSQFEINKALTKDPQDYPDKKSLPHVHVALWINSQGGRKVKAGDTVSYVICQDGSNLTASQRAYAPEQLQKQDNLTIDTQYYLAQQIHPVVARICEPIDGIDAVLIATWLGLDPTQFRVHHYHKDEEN
As to the kind of experiment: CD437 fluorescence intensity enhancement titration.

The target in test [2] is T2, DNA polymerase α catalytic subunit (POLA1) (Homo sapiens, UniProt P09884, L700S).
T2 sequence (P09884 335-1257 L700S): T1 sequence (P09884 335-1257 L764S) with L366S, S430L
As to the kind of experiment: CD437 fluorescence intensity enhancement titration.

The target in test [3] is T3, DNA polymerase α catalytic subunit (POLA1) (Homo sapiens, UniProt P09884).
T3 sequence (P09884 335-1257): T1 sequence (P09884 335-1257 L764S) with S430L
As to the kind of experiment: CD437 fluorescence intensity enhancement and anisotropy titration.

As to `O=C(O)c1ccc2cc(-c3ccc(O)c(C45CC6CC(CC(C6)C4)C5)c3)ccc2c1` [CD437, 6-[3-(1-adamantyl)-4-hydroxyphenyl]-2-naphthalene carboxylic acid], the Kd is 94 ± 18 nM in test [1], less than 5 nM in test [2] and 67 ± 22 nM in test [3].

For orientation: Kd means the equilibrium constant for the complex coming apart.
